ChEMBL document CHEMBL4339245, “Grayanane Diterpenoids from the Leaves of Rhododendron auriculatum and Their Analgesic Activities” (2019)
Activity calls are given as the source filed them. No cut-off for these calls is given here.

Tests used:
[1] = tested on: Mus musculus; assay: Analgesic activity in Kunming mouse model of acetic-acid-induced writhing assessed as inhibition of writhing numbers at 1 mg/kg measured for 30 mins relative to control; format: functional, organism-based
[2] = tested on: Mus musculus; assay: Analgesic activity in Kunming mouse model of acetic-acid-induced writhing assessed as inhibition of writhing numbers at 5 mg/kg measured for 30 mins relative to control; format: functional
[3] = tested on: Mus musculus; assay: Analgesic activity in Kunming mouse model of acetic-acid-induced writhing assessed as inhibition of writhing numbers at 0.04 mg/kg measured for 30 mins relative to control; format: functional, organism-based
[4] = tested on: Mus musculus; assay: Analgesic activity in Kunming mouse model of acetic-acid-induced writhing assessed as inhibition of writhing numbers at 0.2 mg/kg measured for 30 mins relative to control; format: functional, organism-based
[5] = tested on: Mus musculus; assay: Analgesic activity in Kunming mouse model of acetic-acid-induced writhing assessed as inhibition of writhing numbers at 0.04 to 0.2 mg/kg measured for 30 mins relative to control; format: functional, organism-based

SMILES | Activity [2] | other results
C=C1C2=C(C=C[C@@]34C[C@@H](CC[C@@H]13)[C@](C)(O)C4)C(C)(C)[C@@H](O)C2 | – | Activity [1]: Active
C=C1[C@@H]2CC[C@@H]3C[C@@]2(C[C@@H](O)[C@@]2(O)[C@H]1C[C@@H](O)C2(C)C)C[C@@]3(C)O | Active | –
C=C1[C@@H]2CC[C@H]3C(C)=C[C@]2(C[C@@H](O)[C@@]2(O)[C@H]1C[C@H](O)C2(C)C)[C@@H]3OC(C)=O | – | Activity [1]: Active
C=C1[C@H]2C[C@H](O)[C@@](C)(CO)[C@]2(O)CC[C@@]23C[C@@H](CC[C@@H]12)[C@](C)(O)C3 | 58.8% | –
C=C1[C@@H]2CC[C@@H]3C[C@@]2(C[C@@H](O)[C@@]2(O)[C@H]1C[C@H](O)C2(C)C)C[C@@]3(C)O | Active | –
C=C1[C@@H]2CC[C@@H]3C[C@@]2(C[C@@H](O)[C@@]2(O)[C@H]1C[C@H](O)C2(C)C)C[C@]3(O)CO | 53.7% | –
C=C1[C@@H]2CC[C@]3(O)C[C@@]2(C[C@@H](O)[C@@]2(O)[C@@H]1[C@H](O)[C@H](O)C2(C)C)C[C@@]3(C)O | Active | –
CN1CC[C@]23c4c5ccc(O)c4O[C@H]2[C@@H](O)C=C[C@H]3[C@H]1C5 | – | Activity [3]: Active
C=C1[C@@H]2CC[C@@H]3[C@@H](OC(C)=O)[C@@]2(C[C@@H](O)[C@@]2(O)[C@H]1C[C@H](O)C2(C)C)C[C@@]3(C)O | – | Activity [4]: Active; Activity [5]: Active
C=C1[C@H]2C[C@@H](O)C(C)(C)[C@]2(O)CC[C@@]23C[C@@H](CC[C@@H]12)[C@](C)(O)C3 | 64.1% | –
C=C1[C@H]2C[C@H](O)C(C)(C)[C@@]2(O)[C@H](O)C[C@]23C=C(C)[C@H](CC[C@@H]12)C3 | Active | –
CC1=C2C[C@H](O)C(C)(C)[C@@H]2C(=O)C[C@@]23C[C@@H](CC=C12)[C@](C)(O)C3 | Active | –
CC1(C)C2=CC[C@@]34C[C@@H](CC[C@H]3[C@@](C)(O)[C@H]2C[C@@H]1O)[C@](C)(O)C4 | Active | –
CC1=C2CC[C@]3(O)C[C@@]2(C[C@@H](O)[C@@]2(O)[C@H]1[C@@H](O)[C@H](O)C2(C)C)C[C@@]3(C)O | Active | –
C=C1[C@@H]2CC[C@@H]3[C@@H](O)[C@@]2(C[C@@H](O)[C@@]2(O)[C@H]1C[C@H](O)C2(C)C)C[C@@]3(C)O | Active | –
C=C1[C@@H]2CC[C@]3(O)C[C@@]2(C[C@@H](O)[C@@]2(O)[C@H]1C[C@H](O)C2(C)C)C[C@@]3(C)O | Active | –
C=C1[C@H]2C[C@H](O)C(C)(C)[C@@]2(O)[C@H](O)C[C@@]23C[C@@H](CC[C@@H]12)[C@](C)(O)C3 | Active | –
C=C1[C@H]2C[C@H](O)C(C)(C)[C@]2(O)CC[C@@]23C[C@@H](CC[C@@H]12)[C@](C)(O)C3 | Active | –
CC(=O)O[C@@H]1[C@H]2CC[C@H]3[C@@](C)(O)[C@@H]4C[C@H](O)C(C)(C)[C@@]4(O)[C@H](O)C[C@@]13C[C@@]2(C)O | – | Activity [4]: Active; Activity [5]: Active
C=C1[C@@H]2CC[C@@H]3C[C@@]2(CC[C@@]2(O)[C@H]1C[C@H](O)C2(C)C)C[C@@]3(C)O | Active | –
C=C1[C@@H]2[C@@H](O)[C@H](O)C(C)(C)[C@@]2(O)[C@H](O)C[C@@]23C[C@@](O)(CC[C@@H]12)[C@](C)(O)C3 | Active | –
C=C1[C@@H]2CC[C@@H]3C[C@@]2(CC[C@@]2(O)[C@H]1C[C@H](O)C2(C)C)C[C@]3(O)CO | Active | –
C=C1[C@H]2C[C@H](O)C(C)(C)[C@@]2(O)[C@H](O)C[C@@]23C[C@@](O)(CC[C@@H]12)[C@](C)(O)C3 | Active | –
CC1=C2CC[C@]3(O)C[C@@]2(C[C@@H](O)[C@@]2(O)[C@H]1C[C@H](O)C2(C)C)C[C@@]3(C)O | 52.3% | –
CO[C@H]1O[C@]23[C@H](O)C[C@@]45C[C@@](O)(CC[C@H]4[C@H]1[C@@H]2C[C@H](O)C3(C)C)[C@](C)(O)C5 | Active | –
